Experimental data from US20150141460A1, “Anti-inflammatory Compositions” (Cambridge Enterprise Limited, priority 2007, published 2015).

Legend:
[1] = system: CD4+ splenocytes (IFN-γ / IL-4); test: Ovalbumin-induced model of asthma, T-helper cell polarisation (Th1/Th2 ratio) of CD4+ splenocytes by flow cytometry; type: in vivo, Brown Norway rats; conditions: 0.3 mg/kg daily via the oral route
Description: Bars represent mean Th1/Th2 ratios, shown on the Y-axis, for groups of 10 animals, whiskers represent SEM; * p<0.05 versus unchallenged rats; † p<0.05 versus sensitised and challenged rats, in both cases using Student's unpaired t-test assuming equal variance, with two tails). All rats (except the ‘BN rats’ group, which was not exposed to ovalbumin) received the same sensitisation and challenge regimen, but were either treated with vehicle only (‘Sensitised+vehicle’), or with compound (I′) at 0.3 mg/kg bodyweight or with monteleukast (‘Singulair™’) at 30 mg/kg bodyweight, all administered daily by oral gavage.
(§1) Adult Brown Norway rats (200-300 g body weight; n=10 per group) were sensitised by a single intraperitoneal injection of 0.1 mg Ovalbumin on day 0. Each rat then received an intratracheal challenge with a solution of 1% ovalbumin (w/v) on day 8, and with 2% ovalbumin (w/v) on days 15, 18 and 21. The animals were then sacrificed 3 hours after the final challenge on day 21. […]
The spleen was also removed from each […] and placed in RPMI+10% FCS+antibiotics. […] The resulting cell suspension was then centrifuged (328 g; 5 mins) and washed in RPMI+10% FCS+antibiotics, before being resuspended in fresh media and counted using a haemocytometer. […]

leukocytes in BAL fluid = test: Ovalbumin-induced lung inflammation model of asthma, cell counts in BAL fluid; type: in vivo, Brown Norway rats; conditions: 0.3 mg/kg daily by oral gavage day 8 to 21; p<0.01
Description: Bars represent mean cell counts, shown on the Y axis in units of 10^6 cells, for groups of […] with whiskers representing SEM; * p<0.01 versus ‘sensitised’ using Student's unpaired t-test assuming equal variance, with two tails). The horizontal line represents the average number of leukocytes present in BAL fluid from the lungs of unchallenged rats. All rats in the remaining three groups received the same sensitisation and challenge regimen, but were either treated with vehicle only (‘Sensitised’), or with compound (I′) at 0.3 mg/kg bodyweight or with monteleukast (‘Singulair™’) at 30 mg/kg bodyweight, all administered daily by oral gavage.
as §1
On sacrifice, total lung leukocyate recruitment was assessed by performing a broncheoalveolar lavage (BAL) using 4 lots of 3 ml sterile phosphate-buffered saline introduced through a tracheal cannula. For each animal, the BAL washes were combined, and the total cell population counted (using a haemocytometer). […]

CC(C)(C)C(=O)N[C@H]1CCCNC1=O [Compound (I′), (S)-3-(2′,2′-dimethylpropanoylamino)-tetrahydropyridin-2-one]
effect on Th2 polarisation (Th1/Th2 ratio) [1]: significantly reversed the Th2 polarisation
reduction of the number of leukocytes in the BAL washes (leukocytes in BAL fluid): 70%
